Laboratory results reported in patent US9832992B1, “Microbicidal composition” (Dow Global Technologies LLC, priority 2013, dated 2017).
Read-outs that look alike come from different tables or passages of the source.

Experiments:
Assay type in all cases: cell-based
[1] = system: Pseudomonas aeruginosa ATCC #15442; assay: MIC / synergy index test in 96 well microtiter plates, Gram negative bacteria
Experimental: (§1) Surfactants and biocides were evaluated for synergy by determining the synergy index (S.I.) of the combination. Synergy index was calculated based on minimum inhibitory concentrations (MIC) of two antimicrobial compounds (A and B) alone and in combinations. The tests organisms were Gram negative bacteria (Pseudomonas aeruginosa ATCC #15442), Gram positive bacteria (Staphylococcus aureus ATCC #6538), yeast (Candida albicans ATCC#10203) and mold (Aspergillus niger ATCC#16404). Contact time for the bacteria was 24 and 48 hours, yeast was 48 and 72 hrs, and 3 and 7 days for mold. The test was carried out in 96 well microtiter plates.
(§2) SI is calculated as follows: Ca/CA+Cb/CB=Synergy Index (“SI”)
(§3) Wherein: • CA=concentration of compound A in ppm, acting alone, which produced an end point (MIC of Compound A). • Ca=concentration of compound A in ppm, in the mixture, which produced an end point. • CB=concentration of compound B in ppm, acting alone, which produced an end point (MIC of Compound B). • Cb=concentration of compound B in ppm, in the mixture, which produced an end point. When the sum of Ca/CA and Cb/CB is greater than one, antagonism is indicated.

[2] = system: Candida albicans ATCC#10203; assay: MIC / synergy index test in 96 well microtiter plates, yeast
Experimental: as §1, §2, §3

[3] = system: Staphylococcus aureus ATCC #6538; assay: MIC / synergy index test in 96 well microtiter plates, Gram positive bacteria
Experimental: as §1, §2, §3

[4] = system: Aspergillus niger ATCC#16404; assay: MIC / synergy index test in 96 well microtiter plates, mold
Experimental: as §1, §2, §3

CB (MIC of compound B alone) ([1]; B: BNPD; table with Surf. D; 24 hrs; Media: 1/10 TSB; Inoculum size: 1.16E+08) | CB (MIC of compound B alone) ([1]; B: BNPD; table with Surf. E; 24 hrs; Media: 1/10 TSB; Inoculum size: 5.727E+07 CFU/ml) | MIC ([1]; Pseudomonas aeruginosa, ATCC15442, 24 h; read-out: CB (MIC of compound B alone)) | CB (MIC of compound B alone) ([2]; B: BNPD; table with Surf. E; 48 hrs; Media: PDB; Inoculum size: 1.808E+06 CFU/ml) | MIC ([2]; Candida albicans, ATCC10203, 48 h; read-out: CB (MIC of compound B alone)) | CB (MIC of compound B alone) ([3]; B: BNPD; table with Surf. E; 24 hrs; Media: 1/10 TSB; Inoculum size: 1.808E+06 CFU/ml) | MIC ([3]; Staphylococcus aureus, ATCC6538, 24 h; read-out: CB (MIC of compound B alone)) | MIC ([4]; Aspergillus niger, ATCC16404; read-out: CB (MIC of compound B alone)) | SMILES | MIC ([1]; Pseudomonas aeruginosa, ATCC15442, 24 h, read-out: CB (MIC of compound B alone)) | CB (MIC of compound B alone) ([2]; B: DAZOMET; table with Surf. D; 48 hrs; Media: PDB; Inoculum size: 5.72E+05) | MIC ([2]; Candida albicans, ATCC10203, 48 h, read-out: CB (MIC of compound B alone)) | CB: MIC of B alone ([3]; B: DAZOMET alone; 24 hrs; Media 1/10 TSB; inoculum 5.72E+05) | MIC ([3]; Staphylococcus aureus, ATCC6538, 24 h, read-out: CB (MIC of compound B alone)) | CB: MIC of B (DAZOMET) alone ([4]; A. niger ATCC #16404; 3rd day; Media: PDB; Inoculum size: 1.156E+06; table with A: Surf. E) | CB: MIC of B (DAZOMET) alone ([4]; A. niger ATCC #16404; 3rd day; Media: PDB; Inoculum size: 1.56E+06; table with A: Surf. D) | MIC ([4]; Aspergillus niger, ATCC16404, read-out: CB (MIC of compound B alone))
 |  |  |  |  |  |  |  | CN1CSC(=S)N(C)C1 [DAZOMET, tetrahydro-3,5-dimethyl-2H-1,3,5-thiadiazine-2-thione] | 80 µg/mL | 50 ppm | 50 µg/mL | 200 PPM AI | 200 µg/mL | 30 PPM AI | 40 PPM AI | 60 µg/mL
10 ppm | 10 ppm | 10 µg/mL | 1000 ppm | 1000 µg/mL | 20 ppm | 20 µg/mL | 1000 µg/mL | O=[N+]([O-])C(Br)(CO)CO [BNPD, 2-bromo-2-nitropropane-1,3-diol] |  |  |  |  |  |  |  | 
